The structures appear in SMILES notation.

Data set [1] concerns the target T1, CB2 (Homo sapiens, UniProt P34972). The data set is described as follows: In vitro competitive binding assay, [3H]CP55,940 displacement, hCB2 membranes. More on the design: purchased PerkinElmer; host or cells: CHO-K1 cells, stably transfected (membrane preparation). As to conditions: CHO-K1 membranes with human CB2, 1.4 nM [3H]CP55,940, Cheng-Prusoff, three experiments in triplicates; read-out: KiCB2.
Experimental: The following test was carried out in order to determine the binding affinity of the compounds of formula I towards CB2 and CB1:
Competitive binding reactions were initiated by the addition of a membrane preparation obtained from CHO-K1 cells stably transfected with human CB1 and CB2, respectively, from PerkinElmer (0.5 pig/tube for hCB1 and hCB2) into incubation tubes. As displacer, 1.4 nM [^3H]CP55,940 (PerkinElmer) was used and 6 to 10 concentrations (ranging from 1 pM to 10 μM) of displacing ligand (compound to test) in assay buffer (50 mM TRIS, 1 mM EDTA, 3 mM MgCl2 and 0.05% bovine serum albumin, pH adjusted to 7.4) were added. Nonspecific binding was defined by the presence of 5 μM WIN-55212-2. After incubation at 30° C. for 90 min reactions were terminated by the addition of 3 mL ice cold assay buffer followed by rapid vacuum filtration through a Whatman GF/C filter (pre-soaked for 2 h in 0.05% polyethylenimine in water) and washed twice with 3 mL ice cold assay buffer. The bound activity was counted in a Beckman LS 6500 Liquid Scintillation Counter after adding 3 mL scintillation cocktail (Ultima Gold, Perkin Elmer) and thorough shaking. For each mean value three experiments, each in triplicates, were performed. K, values were determined with the equation from Cheng-Prusoff.

The target of data set [2] is T2, CB2 (Rattus norvegicus, UniProt Q9QZN9).
T2 sequence (Q9QZN9 1-360): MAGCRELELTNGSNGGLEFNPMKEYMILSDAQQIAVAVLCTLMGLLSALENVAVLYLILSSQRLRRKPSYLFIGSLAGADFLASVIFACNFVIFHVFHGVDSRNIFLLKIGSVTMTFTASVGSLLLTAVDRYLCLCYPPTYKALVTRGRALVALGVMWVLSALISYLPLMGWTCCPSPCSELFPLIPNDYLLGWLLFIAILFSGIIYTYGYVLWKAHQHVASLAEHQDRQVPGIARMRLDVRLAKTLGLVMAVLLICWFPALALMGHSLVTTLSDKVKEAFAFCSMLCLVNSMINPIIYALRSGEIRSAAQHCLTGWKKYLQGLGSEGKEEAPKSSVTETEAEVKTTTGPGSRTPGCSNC
More on the design: host or cells: rats in vivo (Mu et al., J. Neurochem. 2013). As to conditions: cited from earlier work.

For data set [3] the following is noted: cited from earlier work.
For data set [4] the following is noted: in vitro transport assay, radiolabelled KD2; cited from earlier work.
Data set [5] is described as follows: Distribution coefficient (log D), shake-flask method. It counts as physicochemical. The note with it: octanol / phosphate buffer pH 7.4, shake-flask, radiotracer. As to the method:
The partition coefficient D was determined by the shake-flask method. Octanol saturated with phosphate buffer pH 7.4 (0.5 mL) and phosphate buffer saturated with octanol (0.5 mL) were mixed with radiotracer of interest (^˜3 MBq). The samples were shaken for 15 min and then centrifuged at 5000 g for 5 min. Radioactivity in each phase was measured in a gamma counter (Wizard, PerkinElmer). Log D is expressed as the logarithm of the ratio between the radioactivity concentrations (Bq/mL) of the octanol and the buffer phase.

The test system of data set [6] is CB2. The data set is described as follows: In vitro autoradiography of rat and mouse spleen slices. The note with it: 0.2 nM radioligand; for binding to spleen slices, displaced by excess of GW405833: blockade 5 μM GW405833. It counts as binding. The protocol:
(§1) Rodent (mouse and rat) spleen tissue were embedded in TissueTek and cut into 20 μm-thick sections on a Cryostat HM 505 N (Microm) at −15° C. (blade and block). The slices were absorbed on SuperFrost Plus slides (Menzel) and stored at −80° until used. For the experiment, the slices were thawed on ice for 10 min before conditioning in incubation buffer (50 mM TRIS/HCl, 5% BSA, pH 7.4) on ice for 10 min. The slices were then dripped with 600 μL of radioligand solution (0.2 nM) in incubation buffer and incubated for 15 min at rt in a humid chamber. For blockade conditions, the slices were dripped with 600 μL of a mixture of radioligand and GW405833 (5 μM), a specific CB2 partial agonist. After incubation, the slices were washed with washing buffer (50 mM TRIS/HCl, 1% BSA, 5% EtOH, pH 7.4) for 2 min (2×) and with distilled water for 5 s (2×) on ice. After drying for 10 min at rt, the slices were exposed (30 min) to appropriate phosphor imager plates (Fuji) and the films were scanned in a BAS5000 reader (Fuji).

The target of data set [7] is T3, CB2 (Mus musculus, UniProt P47936).
T3 construct: from tissue; host or cells: brain of living CD1 male mice (PET)
The data set is described as follows: LPS mouse model of neuroinflammation, small animal PET brain scans. It counts as in vivo, CD1 male mice. As to the method:
As a model of neuroinflammation, six CD1 male mice were injected ip (100-150 μl) with 10 mg/kg lipopolysaccharide (LPS), Escherichia coli strain O111:B4, or vehicle (saline) 5 days prior to PET. […] For blocking conditions, 2.0 mg/kg GW405833 was injected sc 30 min before tracer application. Depth of anesthesia was monitored by measuring respiratory frequency (SA Instruments, Inc., Stony Brook, USA). Body temperature was controlled by a rectal probe and kept at 37° C. by a thermocoupler and a heated air stream. Data were reconstructed in user-defined time frames with a voxel size of 0.3875×0.3875×0.775 mm^3 by 2-dimensional-ordered subsets expectation maximization (2D-OSEM). Random and single but no attenuation correction was applied. PET acquisitions were followed by a CT for anatomical orientation. Image files were analyzed with PMOD 3.5 software (PMOD Technologies Ltd., Zurich, Switzerland). Tissue radioactivity was expressed as standardized uptake values (SUV), that is, the decay-corrected radioactivity per cm^3 divided by the injected radioactivity dose per gram of body weight.

The target of data set [8] is T1, CB2. The data set is described as follows: Autoradiography with post mortem spinal cord slices of ALS patients. Also on record: from tissue; host or cells: human post mortem ALS spinal cord sections. The format is binding. The note with it: 0.2 nM tracer, absence or presence of 5 μM GW405833. The protocol:
as §1
To evaluate the potential of our novel CB2 PET tracer in imaging ALS, post mortem spinal cord tissues from ALS patients were investigated in autoradiography experiments. Human post mortem ALS spinal cord tissue samples were embedded in TissueTek and cut into 20 μm-thick sections on a Cryostat. Autoradiography was performed as described in section “Example 5”.

For data set [9], the target named is T2, CB2. It counts as in vivo, male Wistar rats. Also on record: from tissue; host or cells: organs of male Wistar rats after iv tracer injection. The note with it: baseline vs blocking with 1.5 mg/kg GW405833, Wistar rats. The protocol:
For blocking conditions, GW405833 (1.5 mg/kg) was injected 30 min before the experiment (n=3). Animals were sacrificed under anesthesia with isoflurane by decapitation at 15 min post injection (p.i). Organs were collected, weighed and radioactivity measured in a gamma-counter. The accumulated radioactivity in the organs was expressed as part per thousand normalized injected dose per gram of tissue (% o normalized ID/g tissue).

T1 sequence (P34972 whole entry): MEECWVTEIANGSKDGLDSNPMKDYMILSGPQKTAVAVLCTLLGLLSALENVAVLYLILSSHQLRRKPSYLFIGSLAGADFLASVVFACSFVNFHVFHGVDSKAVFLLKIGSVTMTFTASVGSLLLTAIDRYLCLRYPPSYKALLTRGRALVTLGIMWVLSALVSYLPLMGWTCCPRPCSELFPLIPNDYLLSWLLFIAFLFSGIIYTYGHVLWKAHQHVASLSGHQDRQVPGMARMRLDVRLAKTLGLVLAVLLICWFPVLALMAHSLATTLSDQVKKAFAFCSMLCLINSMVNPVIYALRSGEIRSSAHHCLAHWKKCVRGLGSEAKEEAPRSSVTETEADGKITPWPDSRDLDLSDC
T3 sequence (P47936 whole entry): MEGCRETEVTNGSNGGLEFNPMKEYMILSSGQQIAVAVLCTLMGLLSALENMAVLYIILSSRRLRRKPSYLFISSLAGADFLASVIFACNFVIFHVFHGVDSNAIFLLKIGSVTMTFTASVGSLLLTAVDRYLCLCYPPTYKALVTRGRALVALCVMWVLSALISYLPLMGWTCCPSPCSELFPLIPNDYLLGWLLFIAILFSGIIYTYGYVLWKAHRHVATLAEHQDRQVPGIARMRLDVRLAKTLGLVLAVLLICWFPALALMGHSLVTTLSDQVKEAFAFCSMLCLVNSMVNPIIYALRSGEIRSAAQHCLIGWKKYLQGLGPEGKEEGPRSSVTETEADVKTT

For the compound `CCCCn1cc(C(=O)NC2CCCC2)c(=O)c2cccc(OC)c21` [RS-007, 1-butyl-N-cyclopentyl-8-methoxy-4-oxo-1,4-dihydroquinoline-3-carboxamide], the Ki on CB2 [1] came to 19.7 ± 8.8 nM.

For `CCOCCn1cc(C(=O)NC23CC4CC(CC(C4)C2)C3)c(=O)c2cccc(OCCF)c21` [RS-122, N-(1-adamantanyl)-1-(2-ethoxyethyl)-8-(2-fluoroethoxy)-4-oxo-1,4-dihydroquinoline-3-carboxamide], the Ki on CB2 [1] was 72 ± 102 nM. Still for that read-out and setting: for `CCOCCn1cc(C(=O)NCCc2ccccc2)c(=O)c2cccc(OC)c21` [RS-022, 1-(2-ethoxyethyl)-8-methoxy-4-oxo-N-phenethyl-1,4-dihydroquinoline-3-carboxamide] the value was 360 ± 240 nM. In the case of `CCCCCn1cc(C(=O)NC23CC4CC(CC(C4)C2)C3)c(=O)c2cccc(OC)c21` [KD2, N-(1-adamantyl)-1-pentyl-8-methoxy-4-oxo-1,4-dihydroquinoline-3-carboxamide], the distribution in brain entry at CB2 [2] (in vivo PET experiments) is on record as “relatively low”. In addition, on CB2 [2] (rats, radiolabelled KD2), the spleen uptake result is “high spleen uptake”. Besides, on CB2 [1], the Ki was 1.7 ± 2 nM. The “log D value at pH 7.4” value in data set [3] is on record as 3.29. In data set [4], the “blood-brain barrier (BBB) passage” value is recorded as “moderate”.

Consider `CCCCn1cc(C(=O)NC(C)(C)C)c(=O)c2cccc(OC)c21` [RS-006, N-(tert-butyl)-1-butyl-8-methoxy-4-oxo-1,4-dihydroquinoline-3-carboxamide], for which the Ki at CB2 [1] worked out at 8.2 ± 5.5 nM. On the same count and under the same terms, in the case of `COc1cccc2c(=O)c(C(=O)NC(C)(C)C)cn(CCCF)c12` [RS-011, N-(tert-butyl)-1-(3-fluoropropyl)-8-methoxy-4-oxo-1,4-dihydroquinoline-3-carboxamide] it was 750 ± 780 nM.

Consider `COc1cccc2c(=O)c(C(=O)NC34CC5CC(CC(C5)C3)C4)cn(CCOCC[18F])c12` [[^18F]RS-126], for which, in data set [5], the logD – broadly, lipophilicity at a set pH, counting ionised and neutral species – is 1.99. In addition, in the data set with CB2 [6], the “unspecific binding on spleen slices” value was “only little unspecific binding” and the “binding to spleen slices, displaced by excess of GW405833” value is “high binding to spleen”.

As for `CCCCn1cc(C(=O)NCC2CC2)c(=O)c2cccc(OC)c21` [RS-008, 1-butyl-N-(cyclopropylmethyl)-8-methoxy-4-oxo-1,4-dihydroquinoline-3-carboxamide], at CB2 [1], the Ki turned out to be 78.8 ± 33.1 nM. Still for that read-out and setting: in the case of `CCOCCn1cc(C(=O)NC23CC4CC(CC(O)(C4)C2)C3)c(=O)c2cccc(OC)c21` [RS-028, 1-(2-ethoxyethyl)-N-(3-hydroxyadamantan-1-yl)-8-methoxy-4-oxo-1,4-dihydroquinoline-3-carboxamide] it was 0.8 ± 0.8 nM.

Take `CCOCCn1cc(C(=O)NC23CC4CC(CC(C4)C2)C3)c(=O)c2cccc(OC)c21` [[^11C]RS-016, N-(1-adamantyl)-1-(2-ethoxyethyl)-8-methoxy-4-oxo-1,4-dihydroquinoline-3-carboxamide]: on CB2 [7] (5 days after 10 mg/kg LPS ip, whole brain, cortex, hippocampus, cerebellum), the “tracer accumulation in brain regions after LPS treatment compared to vehicle group” value is “Increased”. For the same compound, the “tracer accumulation in brain regions after blockade” value at CB2 [7] (LPS mice, 2 mg/kg GW405833 sc 30 min before tracer) is “reduced in all brain regions”. Further, at CB2 [8], the “binding to ALS spinal cord tissue” value is “high specific binding”. In addition, in data set [5], the “log D pH 7.4” value is recorded as 2.78. The “share of total activity in spleen tissue due to specific CB2 binding” value on CB2 [9] is recorded as 78%. For the same compound, in the data set with CB2 [6], the “unspecific binding on spleen slices” value is on record as “only little unspecific binding” and the “binding to spleen slices, displaced by excess of GW405833” value was “high binding to spleen”.

Consider `COc1cccc2c(=O)c(C(=O)NC34CC5CC(CC(C5)C3)C4)cn(CCOCCF)c12` [RS-126, N-(1-adamantyl)-1-(2-(2-fluoroethoxy)ethyl)-8-methoxy-4-oxo-1,4-dihydroquinoline-3-carboxamide], for which, on CB2 [1], the Ki amounted to 1.2 ± 0.8 nM. On the same count and under the same terms, in the case of `CCOCCn1cc(C(=O)NC23CC4CC(CC(F)(C4)C2)C3)c(=O)c2cccc(OC)c21` [RS-030, 1-(2-ethoxyethyl)-N-(3-fluoroadamantyl)-8-methoxy-4-oxo-1,4-dihydroquinoline-3-carboxamide] it was 2.1 ± 1.5 nM; in that of `CCCCn1cc(C(=O)NC23CC4CC(CC(C4)C2)C3)c(=O)c2cccc(OC)c21` [RS-005, N-(1-adamantyl)-1-butyl-8-methoxy-4-oxo-1,4-dihydroquinoline-3-carboxamide], 3.3 ± 0.2 nM.

Values taken from patent US20170174632A1, “4-OXO-1, 4-DIHYDROQUINOLINE-3-CARBOXAMIDE AS SELECTIVE LIGAND FOR CANNABINOID RECEPTOR 2 FOR DIAGNOSIS AND THERAPY” (priority 2014, published 2017).
